Data: ChEMBL document CHEMBL3817755, “Design, synthesis and biological evaluation of indazolepyrimidine based derivatives as anticancer agents with anti-angiogenic and antiproliferative activities” (Medchemcomm, 2016)

Legend:
[1] = Growth inhibition of human HL-60(TB) cells at 10 uM after 48 hrs by SRB assay; assay type: functional; conditions: HL-60, 48 h, read-out: GI
[2] = Growth inhibition of human RPMI8226 cells at 10 uM after 48 hrs by SRB assay; assay type: functional; conditions: RPMI-8226, 48 h, read-out: GI
SR [3] = test: Growth inhibition of human SR cells at 10 uM after 48 hrs by SRB assay; assay type: functional; conditions: read-out: GI
EKVX [4] = test: Growth inhibition of human EKVX cells at 10 uM after 48 hrs by SRB assay; assay type: functional; conditions: read-out: GI
NCI-H460 = test: Growth inhibition of human NCI-H460 cells at 10 uM after 48 hrs by SRB assay; assay type: functional; conditions: NCI-H460, 48 h, read-out: GI
[5] = Growth inhibition of human HCT116 cells at 10 uM after 48 hrs by SRB assay; assay type: functional; conditions: HCT-116, 48 h, read-out: GI
[6] = Growth inhibition of human HCT15 cells at 10 uM after 48 hrs by SRB assay; assay type: functional; conditions: HCT-15, 48 h, read-out: GI
KM12 = test: Growth inhibition of human KM12 cells at 10 uM after 48 hrs by SRB assay; assay type: functional; conditions: KM12, 48 h, read-out: GI
[7] = Growth inhibition of human SNB19 cells at 10 uM after 48 hrs by SRB assay; assay type: functional; conditions: SNB-19, 48 h, read-out: GI
U-251 = test: Growth inhibition of human U251 cells at 10 uM after 48 hrs by SRB assay; assay type: functional; conditions: U-251, 48 h, read-out: GI
M14 = test: Growth inhibition of human M14 cells at 10 uM after 48 hrs by SRB assay; assay type: functional; conditions: M14, 48 h, read-out: GI
SK-MEL-28 = test: Growth inhibition of human SK-MEL-28 cells at 10 uM after 48 hrs by SRB assay; assay type: functional; conditions: SK-MEL-28, 48 h, read-out: GI
[8] = Growth inhibition of human UACC62 cells at 10 uM after 48 hrs by SRB assay; assay type: functional; conditions: UACC-62, 48 h, read-out: GI
A498 = test: Growth inhibition of human A498 cells at 10 uM after 48 hrs by SRB assay; assay type: functional; conditions: A498, 48 h, read-out: GI
MDA-MB-231 = test: Growth inhibition of human MDA-MB-231 cells at 10 uM after 48 hrs by SRB assay; assay type: functional; conditions: MDA-MB-231, 48 h, read-out: GI
T47D = test: Growth inhibition of human T47D cells at 10 uM after 48 hrs by SRB assay; assay type: functional; conditions: read-out: GI
MDA-MB-468 = test: Growth inhibition of human MDA-MB-468 cells at 10 uM after 48 hrs by SRB assay; assay type: functional; conditions: MDA-MB-468, 48 h, read-out: GI
CCRF-CEM = test: Growth inhibition of human CCRF-CEM cells after 48 hrs by SRB assay; assay type: functional
[9] = Growth inhibition of human MOLT4 cells after 48 hrs by SRB assay; assay type: functional; conditions: MOLT-4, 48 h
[10] = Growth inhibition of human RPMI8226 cells after 48 hrs by SRB assay; assay type: functional; conditions: RPMI-8226, 48 h
SR [11] = test: Growth inhibition of human SR cells after 48 hrs by SRB assay; assay type: functional
EKVX [12] = test: Growth inhibition of human EKVX cells after 48 hrs by SRB assay; assay type: functional
[13] = Growth inhibition of human HOP62 cells after 48 hrs by SRB assay; assay type: functional; conditions: HOP-62, 48 h
NCI-H226 = test: Growth inhibition of human NCI-H226 cells after 48 hrs by SRB assay; assay type: functional; conditions: NCI-H226, 48 h
[14] = Growth inhibition of human HCC2998 cells after 48 hrs by SRB assay; assay type: functional; conditions: HCC 2998, 48 h
[15] = Growth inhibition of human SF268 cells after 48 hrs by SRB assay; assay type: functional; conditions: SF-268, 48 h
[16] = Growth inhibition of human SF295 cells after 48 hrs by SRB assay; assay type: functional; conditions: SF-295, 48 h
MDA-MB-435 = test: Growth inhibition of human MDA-MB-435 cells after 48 hrs by SRB assay; assay type: functional; conditions: MDA-MB-435, 48 h
SK-MEL-5 = test: Growth inhibition of human SK-MEL-5 cells after 48 hrs by SRB assay; assay type: functional; conditions: SK-MEL-5, 48 h
[17] = Growth inhibition of human OVCAR3 cells after 48 hrs by SRB assay; assay type: functional; conditions: OVCAR-3, 48 h
[18] = Growth inhibition of human OVCAR4 cells after 48 hrs by SRB assay; assay type: functional; conditions: OVCAR-4, 48 h
786-0 = test: Growth inhibition of human 786-0 cells after 48 hrs by SRB assay; assay type: functional; conditions: 786-0, 48 h
[19] = Growth inhibition of human TK10 cells after 48 hrs by SRB assay; assay type: functional; conditions: TK-10, 48 h
[20] = Growth inhibition of human Hs 578T cells after 48 hrs by SRB assay; assay type: functional
[21] = Growth inhibition of human BT549 cells after 48 hrs by SRB assay; assay type: functional; conditions: BT-549, 48 h
[22] = target: Hepatocyte growth factor receptor (Homo sapiens) (UniProt P08581); test: Inhibition of c-Met (unknown origin) at 10 uM
[23] = target: Cyclin-dependent kinase 2 (Homo sapiens) (UniProt P24941); test: Inhibition of CDK-2 (unknown origin) at 10 uM
[24] = target: Mast/stem cell growth factor receptor Kit (Homo sapiens) (UniProt P10721); test: Inhibition of c-Kit (unknown origin) at 10 uM
[25] = read-out: LC50 (the source's name)

Hepatocyte growth factor receptor (Homo sapiens), sequence (P08581 whole entry): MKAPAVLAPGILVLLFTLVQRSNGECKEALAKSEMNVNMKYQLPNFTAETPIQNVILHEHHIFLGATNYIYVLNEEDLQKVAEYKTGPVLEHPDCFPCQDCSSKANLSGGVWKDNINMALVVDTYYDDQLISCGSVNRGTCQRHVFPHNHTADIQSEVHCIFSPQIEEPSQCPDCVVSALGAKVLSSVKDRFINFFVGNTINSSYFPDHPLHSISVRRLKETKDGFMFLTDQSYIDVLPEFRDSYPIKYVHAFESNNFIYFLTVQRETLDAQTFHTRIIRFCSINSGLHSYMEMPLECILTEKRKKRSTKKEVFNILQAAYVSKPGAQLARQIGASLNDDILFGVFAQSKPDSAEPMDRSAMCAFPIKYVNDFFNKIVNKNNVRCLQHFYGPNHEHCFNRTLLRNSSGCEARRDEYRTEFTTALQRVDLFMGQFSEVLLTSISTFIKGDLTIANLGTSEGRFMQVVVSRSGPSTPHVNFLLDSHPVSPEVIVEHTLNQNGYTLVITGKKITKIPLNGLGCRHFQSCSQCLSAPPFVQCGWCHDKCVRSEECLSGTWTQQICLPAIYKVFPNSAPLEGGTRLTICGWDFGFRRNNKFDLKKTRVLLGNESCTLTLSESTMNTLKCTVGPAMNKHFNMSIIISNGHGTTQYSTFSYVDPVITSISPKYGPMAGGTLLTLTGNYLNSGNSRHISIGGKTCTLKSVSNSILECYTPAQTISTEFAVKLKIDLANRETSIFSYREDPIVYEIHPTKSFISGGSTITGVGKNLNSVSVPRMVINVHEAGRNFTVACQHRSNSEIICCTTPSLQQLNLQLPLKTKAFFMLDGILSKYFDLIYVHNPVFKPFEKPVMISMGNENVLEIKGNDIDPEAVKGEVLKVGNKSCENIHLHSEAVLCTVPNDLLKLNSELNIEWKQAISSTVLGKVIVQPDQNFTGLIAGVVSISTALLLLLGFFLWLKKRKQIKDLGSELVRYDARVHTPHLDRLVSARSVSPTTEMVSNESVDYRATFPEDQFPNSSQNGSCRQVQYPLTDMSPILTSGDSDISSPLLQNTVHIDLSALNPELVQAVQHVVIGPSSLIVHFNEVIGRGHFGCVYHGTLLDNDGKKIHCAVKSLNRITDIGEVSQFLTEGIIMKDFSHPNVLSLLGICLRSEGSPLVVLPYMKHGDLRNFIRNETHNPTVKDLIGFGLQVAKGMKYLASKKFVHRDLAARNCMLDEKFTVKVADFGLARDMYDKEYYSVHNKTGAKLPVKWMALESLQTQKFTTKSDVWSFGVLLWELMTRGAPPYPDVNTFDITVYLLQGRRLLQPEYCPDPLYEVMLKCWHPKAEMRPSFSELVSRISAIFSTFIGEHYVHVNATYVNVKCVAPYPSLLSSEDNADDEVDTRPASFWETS
Mast/stem cell growth factor receptor Kit (Homo sapiens), sequence (P10721 whole entry): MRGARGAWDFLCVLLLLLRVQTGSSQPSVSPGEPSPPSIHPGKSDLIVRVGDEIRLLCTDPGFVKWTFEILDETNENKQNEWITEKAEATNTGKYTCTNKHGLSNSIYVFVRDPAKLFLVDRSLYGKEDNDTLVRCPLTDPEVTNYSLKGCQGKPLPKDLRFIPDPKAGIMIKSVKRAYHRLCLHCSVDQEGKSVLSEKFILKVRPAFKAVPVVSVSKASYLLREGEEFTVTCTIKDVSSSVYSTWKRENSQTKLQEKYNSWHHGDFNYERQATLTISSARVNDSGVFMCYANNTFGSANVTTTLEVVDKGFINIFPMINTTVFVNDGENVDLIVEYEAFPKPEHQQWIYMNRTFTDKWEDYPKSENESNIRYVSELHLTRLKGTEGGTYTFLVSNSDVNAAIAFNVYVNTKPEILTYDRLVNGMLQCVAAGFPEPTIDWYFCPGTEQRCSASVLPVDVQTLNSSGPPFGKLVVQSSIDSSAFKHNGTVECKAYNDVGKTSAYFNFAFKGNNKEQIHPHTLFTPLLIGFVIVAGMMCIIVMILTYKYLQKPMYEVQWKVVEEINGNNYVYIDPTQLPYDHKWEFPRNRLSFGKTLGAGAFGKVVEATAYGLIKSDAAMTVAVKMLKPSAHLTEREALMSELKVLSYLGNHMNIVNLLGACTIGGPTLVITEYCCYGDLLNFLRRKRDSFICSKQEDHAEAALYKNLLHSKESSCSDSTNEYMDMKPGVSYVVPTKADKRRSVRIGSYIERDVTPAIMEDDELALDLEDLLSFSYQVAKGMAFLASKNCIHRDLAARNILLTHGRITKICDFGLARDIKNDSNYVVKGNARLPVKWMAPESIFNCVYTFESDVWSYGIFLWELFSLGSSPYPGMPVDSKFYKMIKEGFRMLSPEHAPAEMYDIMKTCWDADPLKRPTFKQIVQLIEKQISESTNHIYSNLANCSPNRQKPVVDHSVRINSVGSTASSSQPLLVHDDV

## COc1cccc(Nc2nccc(Nc3ccc4[nH]ncc4c3)n2)c1
[1]
  inhibition of growth at 10 µM: 162%
[2]
  inhibition of growth at 10 µM: 140%
SR [3]
  inhibition of growth at 10 µM: 111%
EKVX [4]
  inhibition of growth at 10 µM: 66%
NCI-H460
  inhibition of growth at 10 µM: 168%
[5]
  inhibition of growth at 10 µM: 187%
[6]
  inhibition of growth at 10 µM: 127%
KM12
  inhibition of growth at 10 µM: 144%
[7]
  inhibition of growth at 10 µM: 76%
U-251
  inhibition of growth at 10 µM: 194%
M14
  inhibition of growth at 10 µM: 174%
SK-MEL-28
  inhibition of growth at 10 µM: 143%
[8]
  inhibition of growth at 10 µM: 157%
A498
  inhibition of growth at 10 µM: 87%
MDA-MB-231
  inhibition of growth at 10 µM: 85%
T47D
  inhibition of growth at 10 µM: 152%
MDA-MB-468
  inhibition of growth at 10 µM: 145%
CCRF-CEM
  GI50: 0.9 µM
  LC50 (concentration for 50% net cell kill): 21.7 µM
  TGI: 4.56 µM
[9]
  GI50: 0.52 µM
  LC50: 28.4 µM
  TGI: 2.83 µM
[10]
  GI50: 1.36 µM
  LC50: 50.1 µM
  TGI: 4.19 µM
SR [11]
  GI50: 1.34 µM
  TGI: 4.93 µM
SR [11]; [25]
  CC50: 20.6 µM
EKVX [12]
  GI50: 1.64 µM
  TGI: 4.09 µM
EKVX [12]; [25]
  CC50: 10.5 µM
[13]
  GI50: 1.71 µM
  LC50: 8.36 µM
  TGI: 3.78 µM
NCI-H226
  GI50: 1.82 µM
  TGI: 4.46 µM
NCI-H226; [25]
  CC50: 14.8 µM
[14]
  GI50: 1.79 µM
  TGI: 3.36 µM
[14]; [25]
  CC50: 6.29 µM
[15]
  GI50: 1.86 µM
  TGI: 5.89 µM
[15]; [25]
  CC50: 22.5 µM
[16]
  GI50: 1.66 µM
  LC50 (concentration killing 50% of cells): 6.04 µM
  TGI: 3.17 µM
MDA-MB-435
  GI50: 1.49 µM
  LC50: 6.78 µM
  TGI: 3.18 µM
SK-MEL-5
  GI50: 1.22 µM
  TGI: 2.47 µM
SK-MEL-5; [25]
  CC50: 5.01 µM
[17]
  GI50: 1.58 µM
  TGI: 4.07 µM
[17]; [25]
  CC50: 11.1 µM
[18]
  GI50: 1.46 µM
  TGI: 4.03 µM
[18]; [25]
  CC50: 12.5 µM
786-0
  GI50: 1.46 µM
  TGI: 2.91 µM
786-0; [25]
  CC50: 5.82 µM
[19]
  GI50: 1.42 µM
  TGI: 2.82 µM
[19]; [25]
  CC50: 5.6 µM
[20]
  GI50: 1.79 µM
  TGI: 4.61 µM
[20]; [25]
  CC50: 15.2 µM
[21]
  GI50: 1.67 µM
  TGI: 3.71 µM
[21]; [25]
  CC50: 8.23 µM
[22]
  inhibition: 54%
[23]
  inhibition: 76%
[24]
  inhibition: 80%

## Clc1ccc(Nc2nccc(Nc3ccc4[nH]ncc4c3)n2)cc1
[1]
  inhibition of growth at 10 µM: 48%
[2]
  inhibition of growth at 10 µM: 82%
SR [3]
  inhibition of growth at 10 µM: 97%
EKVX [4]
  inhibition of growth at 10 µM: 33%
NCI-H460
  inhibition of growth at 10 µM: 59%
[5]
  inhibition of growth at 10 µM: 61%
[6]
  inhibition of growth at 10 µM: 60%
KM12
  inhibition of growth at 10 µM: 91%
[7]
  inhibition of growth at 10 µM: 22%
U-251
  inhibition of growth at 10 µM: 41%
M14
  inhibition of growth at 10 µM: 56%
SK-MEL-28
  inhibition of growth at 10 µM: 20%
[8]
  inhibition of growth at 10 µM: 66%
A498
  inhibition of growth at 10 µM: 61%
MDA-MB-231
  inhibition of growth at 10 µM: 31%
T47D
  inhibition of growth at 10 µM: 70%
MDA-MB-468
  inhibition of growth at 10 µM: 66%

## Fc1ccc(Nc2nccc(Nc3ccc4[nH]ncc4c3)n2)cc1
[1]
  inhibition of growth at 10 µM: 31%
[2]
  inhibition of growth at 10 µM: 59%
SR [3]
  inhibition of growth at 10 µM: 62%
EKVX [4]
  inhibition of growth at 10 µM: 29%
NCI-H460
  inhibition of growth at 10 µM: 40%
[5]
  inhibition of growth at 10 µM: 45%
[6]
  inhibition of growth at 10 µM: 38%
KM12
  inhibition of growth at 10 µM: 76%
[7]
  inhibition of growth at 10 µM: 12%
U-251
  inhibition of growth at 10 µM: 35%
M14
  inhibition of growth at 10 µM: 38%
SK-MEL-28
  inhibition of growth at 10 µM: 11%
[8]
  inhibition of growth at 10 µM: 29%
A498
  inhibition of growth at 10 µM: 51%
MDA-MB-231
  inhibition of growth at 10 µM: 21%
T47D
  inhibition of growth at 10 µM: 71%
MDA-MB-468
  inhibition of growth at 10 µM: 53%

## NS(=O)(=O)c1ccc(Nc2nccc(Nc3ccc4[nH]ncc4c3)n2)cc1
[1]
  inhibition of growth at 10 µM: 2%
[2]
  inhibition of growth at 10 µM: 16%
SR [3]
  inhibition of growth at 10 µM: 34%
EKVX [4]
  inhibition of growth at 10 µM: -1%
NCI-H460
  inhibition of growth at 10 µM: 1%
[5]
  inhibition of growth at 10 µM: 5%
[6]
  inhibition of growth at 10 µM: -6%
KM12
  inhibition of growth at 10 µM: 22%
[7]
  inhibition of growth at 10 µM: 4%
U-251
  inhibition of growth at 10 µM: 19%
M14
  inhibition of growth at 10 µM: 5%
SK-MEL-28
  inhibition of growth at 10 µM: -18%
[8]
  inhibition of growth at 10 µM: 11%
A498
  inhibition of growth at 10 µM: 32%
MDA-MB-231
  inhibition of growth at 10 µM: 14%
T47D
  inhibition of growth at 10 µM: 50%
MDA-MB-468
  inhibition of growth at 10 µM: 36%
